Assay results as given in US20050014706A1, “Method of treating tuberculosis” (priority 2003, published 2005).
pIC50: −log10 of the molar value. Converted amounts (≈) assume the structure as drawn. Read-outs that look alike come from different tables or passages of the source.

Assays:
[1] = test system: M. tuberculosis H37Rv; assay: MIC vs. M. tuberculosis H37Rv, microplate Alamar Blue assay (MABA); format: cell-based; settings: for MIC / activity vs. M. tuberculosis in words: in vitro
[2] = test system: J774.1 macrophage cell line; assay: Cytotoxicity against J774.1 macrophage cell line; format: cell-based, murine; settings: J774 cells, read-out: J774 IC50 (toxicity)
[3] = test system: VERO cells; assay: Cytotoxicity against VERO cells (MTS, 72 hours); settings: for pIC50: read-out: Vero IC50 (toxicity)
[4] = test system: M. tuberculosis Erdman; format: in vivo, BALB/c mice; settings: […]; 100 and 200 mg/kg qd (RU60887 100 mg/kg only)
[5] = Table 3, parallel-synthesis carbazate library products
[6] = Table 1a, 11,12-carbamate derivatives, read-out: Anti-TB Activity MIC
[7] = Table 2a, 11,12-diols, read-out: Anti-TB Activity MIC

CC[C@H]1OC(=O)[C@H](C)[C@@H](O[C@H]2CC(C)(OC)[C@@H](O)[C@H](C)O2)[C@H](C)[C@@H](O[C@@H]2O[C@H](C)C[C@H](N(C)C)[C@H]2O)[C@](C)(OC)C[C@@H](C)C(=O)[C@H](C)[C@H]2N(NCc3nc4ccccc4s3)C(=O)O[C@]12C (stereo partly shown) [F7′]
MIC [1, 5]: 16 µM (≈ 15 µg/mL)

CC[C@H]1OC(=O)[C@H](C)[C@@H](O[C@H]2CC(C)(OC)[C@@H](O)[C@H](C)O2)[C@H](C)[C@@H](O[C@@H]2O[C@H](C)C[C@H](N(C)C)[C@H]2O)[C@](C)(OC)C[C@@H](C)C(=O)[C@H](C)[C@H]2N(NCc3csc(-c4ccccc4)n3)C(=O)O[C@]12C (stereo partly shown) [F9′]
MIC [1, 5]: 12.6 µM (≈ 12.1 µg/mL)

CC[C@H]1OC(=O)[C@H](C)[C@@H](O[C@H]2CC(C)(OC)[C@@H](O)[C@H](C)O2)[C@H](C)[C@@H](O[C@@H]2O[C@H](C)C[C@H](N(C)C)[C@H]2O)[C@](C)(OC)C[C@@H](C)C(=O)[C@H](C)[C@H]2N(NCc3cc(Br)cs3)C(=O)O[C@]12C (stereo partly shown) [F11′]
MIC [1, 5]: 12.7 µM (≈ 12.2 µg/mL)

CC[C@H]1OC(=O)[C@H](C)[C@@H](O[C@H]2CC(C)(OC)[C@@H](O)[C@H](C)O2)[C@H](C)[C@@H](O[C@@H]2O[C@H](C)C[C@H](N(C)C)[C@H]2O)[C@](C)(OC)C[C@@H](C)C(=O)[C@H](C)[C@H]2N(NCc3cc4ccccc4s3)C(=O)O[C@]12C (stereo partly shown) [G2′]
MIC [1, 5]: 11 µM (≈ 10.3 µg/mL)

CC[C@H]1OC(=O)[C@H](C)[C@@H](O[C@H]2CC(C)(OC)[C@@H](O)[C@H](C)O2)[C@H](C)[C@@H](O[C@@H]2O[C@H](C)C[C@H](N(C)C)[C@H]2O)[C@](C)(OC)C[C@@H](C)C(=O)[C@H](C)[C@H]2N(NCc3sccc3Oc3ccccc3)C(=O)O[C@]12C (stereo partly shown) [G4′]
MIC [1, 5]: 13 µM (≈ 12.7 µg/mL)

CC[C@H]1OC(=O)[C@H](C)[C@@H](O[C@H]2CC(C)(OC)[C@@H](O)[C@H](C)O2)[C@H](C)[C@@H](O[C@@H]2O[C@H](C)C[C@H](N(C)C)[C@H]2O)[C@](C)(OC)C[C@@H](C)C(=O)[C@H](C)[C@H]2N(NCC3=Cc4ccccc4OC3)C(=O)O[C@]12C (stereo partly shown) [G6′]
MIC [1, 5]: 11 µM (≈ 10.3 µg/mL)

CC[C@H]1OC(=O)[C@H](C)[C@@H](O[C@H]2CC(C)(OC)[C@@H](O)[C@H](C)O2)[C@H](C)[C@@H](O[C@@H]2O[C@H](C)C[C@H](N(C)C)[C@H]2O)[C@](C)(OC)C[C@@H](C)C(=O)[C@H](C)[C@H]2N(NCc3cc(Cl)cc(Br)c3O)C(=O)O[C@]12C (stereo partly shown) [G8′]
MIC [1, 5]: 14 µM (≈ 14.1 µg/mL)

CC[C@H]1OC(=O)[C@H](C)[C@@H](O[C@H]2CC(C)(OC)[C@@H](O)[C@H](C)O2)[C@H](C)[C@@H](O[C@@H]2O[C@H](C)C[C@H](N(C)C)[C@H]2O)[C@](C)(OC)C[C@@H](C)C(=O)[C@H](C)[C@H]2N(NCC3CSN=N3)C(=O)O[C@]12C (stereo partly shown) [G10′]
MIC [1, 5]: >16 µM

CC[C@H]1OC(=O)[C@H](C)[C@@H](O[C@H]2CC(C)(OC)[C@@H](O)[C@H](C)O2)[C@H](C)[C@@H](O[C@@H]2O[C@H](C)C[C@H](N(C)C)[C@H]2O)[C@](C)(OC)C[C@@H](C)C(=O)[C@H](C)[C@H]2N(NCc3ccc(N4CCC(c5ccccc5OC)CC4)c([N+](=O)[O-])c3)C(=O)O[C@]12C (stereo partly shown) [G12′]
MIC [1, 5]: 19 µM (≈ 21.1 µg/mL)

CC[C@H]1OC(=O)[C@H](C)[C@@H](O[C@H]2CC(C)(OC)[C@@H](O)[C@H](C)O2)[C@H](C)[C@@H](O[C@@H]2O[C@H](C)C[C@H](N(C)C)[C@H]2O)[C@](C)(OC)C[C@@H](C)C(=O)[C@H](C)[C@H]2N(NCc3c(Cl)cccc3Cl)C(=O)O[C@]12C (stereo partly shown) [H1′]
MIC [1, 5]: 11 µM (≈ 10.4 µg/mL)

CC[C@H]1OC(=O)[C@H](C)[C@@H](O[C@H]2CC(C)(OC)[C@@H](O)[C@H](C)O2)[C@H](C)[C@@H](O[C@@H]2O[C@H](C)C[C@H](N(C)C)[C@H]2O)[C@](C)(OC)C[C@@H](C)C(=O)[C@H](C)[C@H]2N(NCc3cccc4nsnc34)C(=O)O[C@]12C (stereo partly shown) [H3′]
MIC [1, 5]: >22 µM

CC[C@H]1OC(=O)[C@H](C)[C@@H](O[C@H]2CC(C)(OC)[C@@H](O)[C@H](C)O2)[C@H](C)[C@@H](O[C@@H]2O[C@H](C)C[C@H](N(C)C)[C@H]2O)[C@](C)(OC)C[C@@H](C)C(=O)[C@H](C)[C@H]2N(NCc3ccc4c(c3)nnn4C)C(=O)O[C@]12C (stereo partly shown) [H7′]
MIC [1, 5]: >22 µM

CCC1OC(=O)C(C)C(OC2CC(C)(OC)C(O)C(C)O2)C(C)C(OC2OC(C)CC(N(C)C)C2O)C(C)(OC)CC(C)C(=O)C(C)C2N(N=CC3=C(Cl)c4cc(F)ccc4OC3)C(=O)OC12C (stereo not shown) [H9′]
MIC [1, 5]: ?3 μM

CC[C@H]1OC(=O)[C@H](C)[C@@H](O[C@H]2CC(C)(OC)[C@@H](O)[C@H](C)O2)[C@H](C)[C@@H](O[C@@H]2O[C@H](C)C[C@H](N(C)C)[C@H]2O)[C@](C)(OC)C[C@@H](C)C(=O)[C@H](C)[C@H]2N(NCc3c(Sc4ccc(Cl)cc4)nc4sccn34)C(=O)O[C@]12C (stereo partly shown) [H11′]
MIC [1, 5]: 35.4 µM (≈ 37.8 µg/mL)

CO[C@H]1/C=C/O[C@@]2(C)Oc3c(C)c(O)c4c(O)c(c(/C=N/N5CCN(C)CC5)c(O)c4c3C2=O)NC(=O)/C(C)=C\C=C\[C@H](C)[C@H](O)[C@@H](C)[C@@H](O)[C@@H](C)[C@H](OC(C)=O)[C@@H]1C [RMP, Rifampin, reference compound]
MIC ([1]; Mycobacterium tuberculosis, H37RV, Table 1a, 11,12-carbamate derivatives, read-out: Anti-TB Activity MIC): 0.076 µM (≈ 0.0625 µg/mL)
pIC50 ([2]; Mus musculus, J774.1, Table 1a): 4.49
pIC50 ([3]; Chlorocebus sabaeus, Vero): 4.33

CCC1OC(=O)C(C)(F)C(=O)C(C)C(OC2OC(C)CC(N(C)C)C2O)C(C)(OC)CC(C)C(=O)C(C)C2N(NCCCc3ccnc4ccccc34)C(=O)OC12C (stereo not shown) [RU3562]
MIC [1, 6]: 16 µM (≈ 13 µg/mL)

CC[C@H]1OC(=O)[C@H](C)[C@@H](O[C@H]2C[C@@](C)(OC)[C@@H](O)[C@H](C)O2)[C@H](C)[C@@H](O[C@@H]2O[C@H](C)C[C@H](N(C)C)[C@H]2O)[C@](C)(O)C[C@@H](C)/C(=N\OCOCc2ccccc2)[C@H](C)[C@@H](O)[C@]1(C)O [RU29558]
MIC [1, 7]: 7 µM (≈ 6.08 µg/mL)
pIC50 ([3]; Table 2a, Vero cells): 4.55

CC[C@H]1OC(=O)[C@H](C)C(=O)[C@H](C)[C@@H](O[C@@H]2O[C@H](C)C[C@H](N(C)C)[C@H]2O)[C@](C)(OC)C[C@@H](C)C(=NOCOCCOC)[C@H](C)[C@@H](O)[C@]1(C)O [RU54615]
MIC [1, 7]: >128 µM

CC[C@H]1OC(=O)[C@H](C)C(=O)[C@H](C)[C@@H](O[C@@H]2O[C@H](C)C[C@H](N(C)C)[C@H]2O)[C@](C)(OC)C[C@@H](C)C(=O)[C@H](C)[C@@H](O)[C@]1(C)O [RU56006]
MIC [1, 7]: >128 µM

CCCCCCCCCCN1CCCC(O/N=C2\[C@H](C)C[C@@](C)(OC)[C@H](O[C@@H]3O[C@H](C)C[C@H](N(C)C)[C@H]3O)[C@@H](C)C(=O)[C@@H](C)C(=O)O[C@H](CC)[C@@](C)(O)[C@H](O)[C@H]2C)C1 (stereo partly shown) [RU60887]
MIC ([1]; Mycobacterium tuberculosis, H37RV, Table 2a, 11,12-diols, read-out: Anti-TB Activity MIC): 0.125 µM (≈ 0.103 µg/mL)
MIC ([1]; Mycobacterium tuberculosis, H37RV, read-out: minimum inhibitory concentration (MIC) against M. tuberculosis): 0.12 µM (≈ 0.0991 µg/mL)
MIC / activity vs. M. tuberculosis in words [1]: very low
pIC50 ([2]; Mus musculus, J774.1, Table 2a): 5.33
activity against M. tuberculosis in the acute phase of infection [4]: less activity
pIC50 ([3]; Chlorocebus sabaeus, Vero): 4.56
toxicity / cytotoxicity in words ([3]; in vitro study): comparable to clarithromycin

CC[C@H]1OC(=O)[C@H](C)C(=O)[C@H](C)[C@@H](O[C@@H]2O[C@H](C)C[C@H](N(C)C)[C@H]2O)[C@](C)(OC)C[C@@H](C)C(=O)[C@H](C)[C@H]2N(CCCCn3ccnc3)C(=O)O[C@]12C [RU61205]
MIC [1, 6]: 112 µM (≈ 82.3 µg/mL)

CC[C@H]1OC(=O)[C@H](C)C(=O)[C@H](C)[C@@H](O[C@@H]2O[C@H](C)C[C@H](N(C)C)[C@H]2O)[C@](C)(OC)C[C@@H](C)C(=NOC2CCCN(C/C=C/c3ccc(-c4ccccc4)cc3)C2)[C@H](C)[C@@H](O)[C@]1(C)O (stereo partly shown) [RU61804]
MIC [1, 7]: 0.5 µM (≈ 0.439 µg/mL)
pIC50 ([2]; Table 2a): 5.41
pIC50 ([3]; Table 2a, Vero cells): 5.04

CC[C@H]1OC(=O)[C@H](C)[C@@H](O[C@H]2CC(C)(OC)[C@@H](O)[C@H](C)O2)[C@H](C)[C@@H](O[C@@H]2O[C@H](C)C[C@H](N(C)C)[C@H]2O)[C@](C)(OC)C[C@@H](C)C(=O)[C@H](C)[C@H]2N(CCCCc3ccnc4ccccc34)C(=O)O[C@]12C (stereo partly shown) [RU66080]
MIC [1, 6]: 0.44 µM (≈ 0.421 µg/mL)
pIC50 ([2]; Table 1a): 5.31
pIC50 ([3]; Table 1a, Vero cells): 5.09

CC[C@H]1OC(=O)[C@H](C)C(=O)[C@H](C)[C@@H](O[C@@H]2O[C@H](C)C[C@H](N(C)C)[C@H]2O)[C@](C)(OC)C[C@@H](C)C(=O)[C@H](C)[C@H]2N(CCCn3cnc4c3c(=O)n(C)c(=O)n4C)C(=O)O[C@]12C [RU66740]
MIC [1, 6]: >128 µM

CC[C@H]1OC(=O)[C@H](C)C(=O)[C@H](C)[C@@H](O[C@@H]2O[C@H](C)C[C@H](N(C)C)[C@H]2O)[C@](C)(OC)C[C@@H](C)C(=O)[C@H](C)[C@H]2N(NCCc3ccccc3)C(=O)O[C@]12C [RU70645]
MIC [1, 6]: 14 µM (≈ 10.2 µg/mL)

CC[C@H]1OC(=O)[C@H](C)C(=O)[C@H](C)[C@@H](O[C@@H]2O[C@H](C)C[C@H](N(C)C)[C@H]2O)[C@](C)(OC)C[C@@H](C)C(=O)[C@H](C)[C@H]2N(CCCCn3cnc(-c4cccnc4)c3)C(=O)O[C@]12C [Telithromycin, reference compound]
MIC [1, 6]: 48 µM (≈ 39 µg/mL)
MIC / activity vs. M. tuberculosis in words [1]: even less active than clarithromycin

cethromycin [ABT773, reference compound]
MIC against M. tuberculosis [1]: 3 µM
MIC [1, 6]: 3 µM
pIC50 ([3]; Table 1a, Vero cells): < 3.98
